These results are taken from US8518956B2, “1-(1-(2-ethoxyethyl)-3-ethyl-7-(4-methylpyridin-2-ylamino)-1H-pyrazolo[4,3-d]pyrimidin-5-yl) piperidine-4-carboxylic acid and salts thereof” (priority 2005, dated 2013).

The structures appear in SMILES notation.

The experiment concerns the target T1, PDE5 enzyme (Homo sapiens, UniProt O76074).
T1 construct: The PDE5 enzyme isolated from human platelets; from tissue; host or cells: human platelets
Put plainly: Method 1: Human Platelet PDE5 Enzyme Inhibition Scintillation Proximity Assay. To be noted: METHOD 1: PDE5 IC50, Table B, WO2004096810 examples. Format: biochemical. An excerpt: Method 1: Human Platelet PDE5 Enzyme Inhibition Scintillation Proximity Assay
An in vitro assay can be used to evaluate the inhibition of PDE5 enzyme activity by a test compound.
The PDE5 enzyme for use in the assay can be obtained from human platelets by appropriate modification of the method of Thompson, W J et al.; Biochemistry 18(23), 5228-5237, 1979, as described by Ballard S A et al.; J. Urology 159(6), 2164-2171, 1998. The PDE5 enzyme isolated from human platelets can be used to catalyze the hydrolysis of [^3H]cGMP (Amersham Biosciences) to 5′ nucleotide [^3H]GMP. The [^3H]GMP binds to yttrium silicate SPA beads (Amersham Biosciences) and is detected by scintillation counting. More specifically, the effect of the test compound at different concentrations can be evaluated in the assay by contacting the compound with a fixed amount of PDE5 enzyme in the presence of substrate (cGMP or cAMP in a 3:1 ratio unlabelled to [^3H]-labeled). Scintillation counting can be used as described above to determine relative PDE5 enzyme activity. The inhibition of PDE5 enzyme activity is then calculated relative to total PDE5 enzyme activity of uninhibited controls.
PDE5 IC50 Assay: 96-well microtiter plate format
• Buffer A: 20 mM Tris-HCl, 5 mM MgCl2, pH 7.4 • Buffer B: 2 mg/ml BSA in Buffer A (enzyme buffer) • cGMP substrate: Final concentration of 500 nM in assay The amount of ^3H-labeled substrate added depends upon the specific activity of [^3H]cGMP, and the cGMP substrate is diluted with a 10 mM stock of cold cGMP in Buffer A for a final substrate concentration of 500 nM in the assay. • PDE enzyme: Prepared in Buffer B. The dilution factor is determined by enzyme activity. • SPA beads: 20 mg/ml suspension prepared in dH2O.
Stocks of standard and test compounds are prepared at 5 mM in 100% DMSO. The compound is serially diluted in a dilution plate using a 10-point ½ log dilution format. 2 μl of the compound dilution is added in duplicate to the wells of the assay plate. 2 μl of 100% DMSO are added to designated control wells. 25 μl of Buffer A are added to all wells. 25 μl of Buffer B are added to the negative control wells. 25 μl of enzyme are added to the remaining wells. 50 μl of substrate are added to each well. Plates are sealed and incubated for 60 minutes on a plate shaker at 30 C. 50 plof SPA beads are added to stop the reaction. The plates are again sealed and shaken for 15 minutes to allow the beads to bind the GMP product. The beads are allowed to settle for 30 minutes and then read on a NXT TopCount scintillation counter. Data are analyzed with a curve fitting application for plate-based screening. Percent inhibition in this assay is calculated as follows: Inhibition (%)=[(mean maximum−compound value/(mean maximum−mean minimum)]×100.
The IC50 value is determined from sigmoid dose-response curves of enzyme activity versus compound concentration.
In general terms: Scintillation proximity formats need no separation of bound from free tracer.
`CCOCCn1nc(CC)c2nc(N(C)[C@H]3CCN(C)C3)nc(Nc3cc(C)ccn3)c21` [WO2004096810 Example 162]: the IC50 (as a rule, the concentration at which inhibition is half-maximal) was 0.24 nM.

The molecule `CCOCCn1nc(COC)c2nc(N3CC(N(C)C)C3)nc(Nc3cc(C)ccn3)c21` [WO2004096810 Example 215] had an IC50 of 5.3 nM.

Consider `CCOCCn1nc(CC)c2nc(N3C[C@@H](C)NC[C@@H]3C)nc(Nc3cc(C)ccn3)c21` [WO2004096810 Example 148], for which half-maximal inhibition (IC50) was put at 4.39 nM.

Molecule `CCOCCn1nc(C)c2nc(N(C)CCOC)nc(Nc3ccc(=O)n(C)c3)c21` [WO2004096810 Example 202] gave a half-maximal inhibitory concentration (IC50) of 5.46 nM.

For `CCOCCn1nc(CC)c2nc(N(C)C3CCN(C)CC3)nc(Nc3ccncn3)c21` [compound 2], the IC50 turned out to be 0.48 nM.

`CCOCCn1nc(C)c2nc(N3C[C@H](C)NC[C@H]3C)nc(Nc3ccncn3)c21` [WO2004096810 Example 138] returned an IC50 of 0.33 nM.

Molecule `CCOCCn1nc(C)c2nc(N3CCN[C@H](C)C3)nc(Nc3ccc(=O)n(C)c3)c21` [WO2004096810 Example 201] displayed an IC50 of 25.9 nM.

`CCOCCn1nc(C)c2nc(N3C[C@H](C)NC[C@H]3C)nc(Nc3cc(C)ccn3)c21` [WO2004096810 Example 136] registered a half-inhibitory concentration (IC50) of 1.09 nM.

As for `Cc1ccnc(Nc2nc(N3CCNCC3)nc3c(C)nn(Cc4ccccn4)c23)c1` [WO2004096810 Example 167], the IC50 turned out to be 2.95 nM.

`CCc1nn(CCOC)c2c(Nc3ccccn3)nc(N(C)CCO)nc12` [WO2004096810 Example 109] showed a half-inhibitory concentration (IC50) of 27.3 nM.

The molecule `CCOCCn1nc(CO)c2nc(N(C)C)nc(Nc3cc(C)ccn3)c21` [WO2004096810 Example 182] came in with an IC50 of 4.03 nM.

With `CCOCCn1nc(CC)c2nc(N(C)[C@@H]3CCN(C)C3)nc(Nc3ccncn3)c21` [WO2004096810 Example 160], the concentration for half-maximal inhibition (IC50) came out at 7.22 nM.

For `CCc1nn(CCOC)c2c(Nc3ccc(F)cn3)nc(NCCOC)nc12` [WO2004096810 Example 110], the IC50 was 513 nM.

Turning to `CCOCCn1nc(C)c2nc(N3CCN[C@H](C)C3)nc(Nc3cnc(C)c(C)c3)c21` [WO2004096810 Example 199], the half-maximal inhibitory concentration (IC50) worked out at 3.13 nM.

As for `CCOCCn1nc(CC)c2nc(N3CCN[C@@H](C(C)C)C3)nc(Nc3ccncn3)c21` [WO2004096810 Example 18], half-maximal inhibition (IC50) was put at 25.8 nM.

The molecule `CCOCCn1ncc2nc(N3CCN[C@H](C)C3)nc(Nc3ccncn3)c21` [WO2004096810 Example 21] yielded an IC50 of 2.04 nM.

The molecule `CCOCCn1nc(CC)c2nc(N3CCN[C@H](C)C3)nc(Nc3ccncn3)c21` [WO2004096810 Example 15] came in with a half-inhibitory concentration (IC50) of 0.09 nM.

`CCc1nn(CCOC)c2c(Nc3ccc(C)cn3)nc(NCCCO)nc12` [WO2004096810 Example 103] gave a 50% inhibitory concentration (IC50) of 76.6 nM.

`CCOCCn1nc(C)c2nc(N3CCN[C@H](C)C3)nc(Nc3cc(C)ncn3)c21` [WO2004096810 Example 26]: the half-inhibitory concentration (IC50) came out at 1.83 nM.

In the case of `CCCc1nn(C)c2c(Nc3ccc(C)cn3)nc(N3CCN(C)CC3)nc12` [WO2004096810 Example 113], the IC50 is 1250 nM.

The molecule `CCCc1nn(C)c2c(Nc3cccc(C(=O)NC)n3)nc(N3CCNCC3)nc12` [WO2004096810 Example 128] had an IC50 of 1390 nM.

In turn, `CCOCCn1nc(CC)c2nc(N3C[C@H](C)NC[C@H]3C)nc(Nc3cc(C)ccn3)c21` [WO2004096810 Example 139] registered a half-maximal inhibitory concentration (IC50) of 0.55 nM.

`CCOCCn1nc(CC)c2nc(N3C[C@H](C)NC[C@H]3C)nc(Nc3ccncn3)c21` [WO2004096810 Example 141] registered an IC50 of 0.15 nM.

On to `CCCc1nn(C)c2c(Nc3ccc(C)cn3)nc(N(C)C3CNC3)nc12` [WO2004096810 Example 38], for which the IC50 is above 10000 nM.

Molecule `CCOCCn1nc(C)c2nc(N(C)CCOC)nc(Nc3ccnc(C)n3)c21` [WO2004096810 Example 219] came in with an IC50 of 41 nM.

Regarding `CCCOCCn1nc(C)c2nc(N3CCN[C@H](C)C3)nc(Nc3ccncn3)c21` [WO2004096810 Example 23], the midpoint of inhibition, the IC50, lay at 0.39 nM.

`CCCOCCn1nc(C)c2nc(N3CCN[C@H](C)C3)nc(Nc3ccc(C)cn3)c21` [WO2004096810 Example 7] had a half-inhibitory concentration (IC50) of 6.03 nM.

In the case of `CCOCCn1nc(COCC)c2nc(N(C)C)nc(Nc3cc(C)ccn3)c21` [WO2004096810 Example 188], the midpoint of inhibition, the IC50, lay at 0.47 nM.

In turn, `CCOCCn1nc(COC)c2nc(N(C)CC)nc(Nc3ccncn3)c21` [WO2004096810 Example 225] showed a 50% inhibitory concentration (IC50) of 1.33 nM.

In turn, `CCOCCn1nc(CO)c2nc(N3C[C@@H]4C[C@H]3CN4)nc(Nc3cc(C)ccn3)c21` [WO2004096810 Example 229] gave an IC50 of 1.61 nM.

`CCOCCn1nc(CC)c2nc(N(C)[C@@H]3CCN(C)C3)nc(Nc3cc(C)ccn3)c21` [WO2004096810 Example 158] returned an IC50 of 0.71 nM.

For the molecule `COCCCn1nc(C)c2nc(N3CCNCC3)nc(Nc3cc(C)n[nH]3)c21` [WO2004096810 Example 116], the IC50 amounted to 1760 nM.

Consider `CCOCCn1nc(C)c2nc(N(C)CCO)nc(Nc3cc(C)ccn3)c21` [WO2004096810 Example 208], for which half-maximal inhibition (IC50) was put at 0.71 nM.

`CCOCCn1nc(CC)c2nc(N3CCN[C@@H](C)C3)nc(Nc3ccncn3)c21` [WO2004096810 Example 16]: the IC50 came to 0.98 nM.

Consider `COCCCn1nc(C)c2nc(N(C)CCO)nc(Nc3cc(C)ccn3)c21` [WO2004096810 Example 92], for which the IC50 was 26.5 nM.

Regarding `COCCCn1nc(C)c2nc(NCCO)nc(Nc3cc(C)ccn3)c21` [WO2004096810 Example 96], half-maximal inhibition (IC50) required 87.9 nM.

`Cc1ccnc(Nc2nc(N3CCNCC3)nc3c(C)n(Cc4ccccn4)nc23)c1` [WO2004096810 Example 176] had a 50% inhibitory concentration (IC50) of 274 nM.

The molecule `CCOCCn1nc(CC)c2nc(N3C[C@@H](C)NC[C@@H]3C)nc(Nc3ccncn3)c21` [WO2004096810 Example 150] registered a half-maximal inhibitory concentration (IC50) of 1.83 nM.

On to `CCOCCn1nc(C)c2nc(N3C[C@@H]4C[C@H]3CN4)nc(Nc3cc(C)cc(C)n3)c21` [WO2004096810 Example 234], for which the concentration for half-maximal inhibition (IC50) worked out at 8.79 nM.

As to `CCOCCn1nc(C)c2nc(N3CCN[C@H](C)C3)nc(Nc3ccc(OC)cn3)c21` [WO2004096810 Example 195], the IC50 was found to be 0.96 nM.

Consider `CCOCCn1nc(C)c2nc(N3CC4CCC3CN4)nc(Nc3cc(C)ccn3)c21` (centres unmarked) [WO2004096810 Example 237], for which the half-inhibitory concentration (IC50) came to 0.67 nM.

Regarding `Cc1ccnc(Nc2nc(N3CCNCC3)nc3c(C)n(CC4CC4)nc23)c1` [WO2004096810 Example 173], the IC50 was 396 nM.

With `Cc1ccnc(Nc2nc(N3CCNCC3)nc3c(C)nn(CC4CCCCO4)c23)c1` (centres unmarked) [WO2004096810 Example 168], it took 0.81 nM to reach half-maximal inhibition (IC50).

Molecule `CCOCCn1nc(C)c2nc(N3C[C@@H]4C[C@H]3CN4C)nc(Nc3cc(C)ccn3)c21` [WO2004096810 Example 206] showed an IC50 of 6.09 nM.

Take `CCCc1nn(C)c2c(Nc3ccncn3)nc(N3CCN(C)CC3)nc12` [WO2004096810 Example 80]: the midpoint of inhibition, the IC50, lay at 1940 nM.

Take `CCCc1nn(C)c2c(Nc3ccc(C)cn3)nc(N3CCCCC3)nc12` [WO2004096810 Example 36]: the concentration for half-maximal inhibition (IC50) amounted to 1450 nM.

In turn, `CCc1nn(CCOC)c2c(Nc3cc(C)n[nH]3)nc(N3CCNCC3)nc12` [WO2004096810 Example 180] showed a half-maximal inhibitory concentration (IC50) of 341 nM.

Consider `CCOCCn1nc(CC)c2nc(N(C)[C@@H]3CCN(C)C3)nc(Nc3ccc(C)cn3)c21` [WO2004096810 Example 159], for which the 50% inhibitory concentration (IC50) was determined as 16.3 nM.

As to `CCOCCn1nc(COC)c2nc(N3CC4CCC(C3)N4)nc(Nc3cc(C)ccn3)c21` [WO2004096810 Example 242], the IC50 amounted to 0.62 nM.

For `CCOCCn1nc(C)c2nc(N3C[C@@H]4C[C@H]3CN4)nc(Nc3cc(C)ccn3)c21` [WO2004096810 Example 236], the IC50 is 2.51 nM.

Turning to `COCCn1nc(C)c2nc(N3C[C@H](C)NC[C@H]3C)nc(Nc3ccncn3)c21` [WO2004096810 Example 135], the midpoint of inhibition, the IC50, lay at 0.92 nM.

As to `CCOCCn1nc(CC)c2nc(N(C)[C@H]3CCN(C)C3)nc(Nc3ccc(C)cn3)c21` [WO2004096810 Example 192], the IC50 came out at 3.06 nM.

The molecule `CCOCCn1nc(CC)c2nc(N3CC(N)C3)nc(Nc3ccncn3)c21` [WO2004096810 Example 3] gave a concentration for half-maximal inhibition (IC50) of 43.8 nM.
